Assay [1] addresses T1, K-Ras G12C (Homo sapiens, UniProt P01116, G12C). Kind of assay: K-Ras G12C, SOS1, Raf RBD HTRF assay for inhibition of GTP exchange. The format is biochemical. Also noted: K-Ras G12C (residues 2-188) and SOS1 (residues 564-1049) had N-terminal 6-His; made in house; host or cells: E. coli. Particulars: 18 hours preincubation with K-Ras G12C at room temperature; SOS1-mediated GTP exchange. The procedure:
K-Ras G12C, SOS1, Raf RBD Homogeneous Time Resolved Fluorescence (HTRF) Assay for Inhibition of GTP Exchange
After 18 hours at room temperature, the SOS1 GTP exchange factor (1.67 nM during exchange, 1.25 nM final) was added to initiate nucleotide exchange to GTP (200 μM during exchange, 150 μM final). The level of GTP exchange was assessed by addition of a Ras binding domain derived from C-Raf and the HTRF detection antibodies Tb-anti-FLAG and D2-anti-his (Cis-Bio) at 50 nM, 1 nM and 12.5 nM, respectively. After 2 hours, the ratio of 665 nm to 615 nm emission with 320 nm excitation was measured on an Envision plate reader (Perkin Elmer).
The final reaction volume was 20 μl in a ProxiPlate-384F Plus (Perkin Elmer), in buffer containing 20 mM HEPES, 150 mM NaCl, 1 mM MgCl2, 0.1% BSA, 0.03% Tween-20 and 1 mM DTT. […] HTRF data are presented below in Table 2.
Background: In TR-FRET formats the signal depends on donor and acceptor labels being close together.
Target sequence in this assay (P01116 2-188 isoform P01116-2 G12C): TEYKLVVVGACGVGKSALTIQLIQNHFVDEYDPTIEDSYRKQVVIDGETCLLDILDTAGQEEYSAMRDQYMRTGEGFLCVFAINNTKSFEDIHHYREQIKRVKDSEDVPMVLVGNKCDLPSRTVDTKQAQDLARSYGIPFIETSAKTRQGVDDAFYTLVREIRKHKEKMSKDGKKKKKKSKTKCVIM

For assay [2], the target named is T1, K-Ras G12C. Kind of assay: Western blot assay for in cell alkylation of K-Ras G12C (HCC1171 cells). The format is cell-based. Also noted: endogenous in cells; host or cells: HCC1171. As to conditions: 18 hours at 37° C., 7 point dose response. The procedure: Western Blot Assay for in Cell Alkylation of K-Ras G12C
HCC1171 cells were maintained in RPMI1640 supplemented with 10% FBS. Cells were plated in a 96-well plate at 20,000 cells/well and the following day compounds were added to the cells. After 18 hours at 37° C., cells were lysed in RIPA buffer (Sigma R0278) with 0.5% SDS and protease/phosphatase inhibitor cocktail. After through mixing to enable complete lysis, the lysates were cleared by centrifugation before 20 μl was transferred from each well and combined with loading buffer and reducing agent. After heating for 10 minutes at 95° C., 15 μl of each sample was loaded onto a 4-20% Tris-Glycine gel and electrophoresed at 110V for 165 minutes in SDS-PAGE running buffer. Gels were transferred to a nitrocellulose membrane, blocked for 1 hour and stained overnight at 4° C. with primary antibody against K-Ras (polyclonal Proteintech 12063-1-AP). The membrane was then washed thoroughly and counterstained with anti-rabbit IRDye 800CW (LI-COR 926-32211) for one hour at room temperature. After final washes, the membrane was imaged on a LI-COR Odyssey CLx at medium resolution. Alkylated K-Ras was visible by an electrophoretic shift from unmodified K-Ras. To quantify this affect, the LICOR software was used to draw a rectangle over alkylated and unalkylated bands for each well and measured the total fluorescent intensity (FI) in each of these bands. The following formula was then used to calculate % alkylation: FI(alkylated)/(FI(alkylated)+FI(unalkylated))*100 for each well.
A 7 point dose response curve was used to determine the IC50 for each compound. Cell alkylation data are presented below in Table 2.
Target sequence in this assay (P01116 1-188 isoform P01116-2 G12C): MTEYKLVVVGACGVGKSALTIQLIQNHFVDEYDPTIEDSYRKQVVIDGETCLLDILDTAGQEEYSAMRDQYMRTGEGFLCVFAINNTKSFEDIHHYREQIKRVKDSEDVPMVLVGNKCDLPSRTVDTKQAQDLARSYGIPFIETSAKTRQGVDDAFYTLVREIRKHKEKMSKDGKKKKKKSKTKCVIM

Broadly, the IC50 is the midpoint of a concentration-inhibition curve. The low end stands for greater potency, the high end for weaker potency. Broadly, the EC50 is the midpoint of the concentration-response curve. A lower EC50 goes with a more potent agent. At K-Ras G12C [1], `C=CC(=O)N1CCN(c2nc(OC[C@@H]3C[C@H](F)CN3C)nc3c2CC[C@H](c2cc(O)cc4ccccc24)C3)[C@@H](C)C1` (single isomer, unassigned) [Example 30a] came in with an IC50 of 11 nM. This compound also returned an EC50 on K-Ras G12C [2] of 40 nM.

Take `C=CC(=O)N1CCN(c2nc(OC[C@@H]3C[C@@H](F)CN3C)nc3c2CC[C@@H](c2cc(O)cc4ccccc24)C3)[C@@H](C)C1` (single isomer, unassigned) [Example 31b]: the IC50 against K-Ras G12C [1] was 250 nM. For the same compound, it took 2000 nM to reach a half-maximal effect at K-Ras G12C [2] (EC50).

On K-Ras G12C [1], `C=CC(=O)N1C[C@H](C)N(c2nc(OC[C@@H]3CCCN3C)nc3c2C[C@@H](C)[C@H](c2cc(O)cc4ccccc24)C3)[C@@H](C)C1` (single isomer, unassigned) [Example 32a] had an IC50 of less than 10 nM. For the same compound, on K-Ras G12C [2], the EC50 was 120 nM.

As for `C=CC(=O)N1C[C@H](C)N(c2nc(OC[C@@H]3CCCN3C)nc3c2C[C@H](C)[C@@H](c2cc(O)cc4ccccc24)C3)[C@@H](C)C1` (single isomer, unassigned) [Example 32b], the concentration for half-maximal inhibition (IC50) against K-Ras G12C [1] amounted to 56 nM. On K-Ras G12C [2], this compound registered an EC50 of 920 nM.

Take `C=CC(=O)N1CCN(c2nc(OC[C@@H]3CCCN3C)nc3c2C[C@@H](C(C)C)[C@H](c2nc(N)cc(C)c2C(F)(F)F)C3)[C@@H](C)C1` (single isomer, unassigned) [Example 33a]: on K-Ras G12C [1], the IC50 is less than 10 nM. On K-Ras G12C [2], it took 51 nM to reach a half-maximal effect (EC50).

For the compound `C=CC(=O)N1CCN(c2nc(OC[C@@H]3CCCN3C)nc3c2C[C@H](C(C)C)[C@@H](c2nc(N)cc(C)c2C(F)(F)F)C3)[C@@H](C)C1` (single isomer, unassigned) [Example 33b], on K-Ras G12C [1], it took 300 nM to reach half-maximal inhibition (IC50). Also, the EC50 on K-Ras G12C [2] amounted to 2200 nM.

Regarding `C=C(F)C(=O)N1CCN(c2nc(OC[C@@H]3CCCN3C)nc3c2CC(C)C(c2c(F)c(N)cc(C)c2C(F)(F)F)C3)CC1CC#N` (single isomer, unassigned) [Example 34a], the IC50 on K-Ras G12C [1] stood at 8900 nM. Moreover, the EC50 at K-Ras G12C [2] is more than 3000 nM.

For `C=C(F)C(=O)N1CCN(c2nc(OC[C@@H]3CCCN3C)nc3c2C[C@H](C)[C@@H](c2c(F)c(N)cc(C)c2C(F)(F)F)C3)C[C@H]1CC#N` (single isomer, unassigned) [Example 34b], inhibition against K-Ras G12C [1] was half-maximal at 680 nM (IC50). This compound yielded an EC50 at K-Ras G12C [2] of 1200 nM.

On K-Ras G12C [1], `C=CC(=O)N1CCN(c2nc(OC[C@@H]3CCCN3C)nc3c2C[C@H](C)[C@@H](c2cccc4c2CCC4)C3)C[C@H]1CC#N` (single isomer, unassigned) [Example 35a] returned an IC50 of 190 nM. Also, the half-maximal effective concentration (EC50) at K-Ras G12C [2] was 550 nM.

With `C=CC(=O)N1CCN(c2nc(OC[C@@H]3CCCN3C)nc3c2C[C@H](C)[C@@H](c2cccc4c2CCC4)C3)C[C@@H]1CC#N` (single isomer, unassigned) [Example 35c], the IC50 at K-Ras G12C [1] came out at 22 nM. On K-Ras G12C [2], this compound gave an EC50 of 46 nM.

Compound `C=CC(=O)N1CCN(c2nc(OC[C@@H]3C[C@@H](F)CN3C)nc3c2C[C@H](C)[C@@H](c2c(F)c(N)cc(C)c2C(F)(F)F)C3)[C@@H](C)C1` (single isomer, unassigned) [Example 36a] yielded an IC50 on K-Ras G12C [1] of 360 nM. On K-Ras G12C [2], this compound displayed an EC50 of 270 nM.

`C=CC(=O)N1CCN(c2nc(OC[C@@H]3C[C@@H](F)CN3C)nc3c2C[C@H](CC)[C@@H](c2c(F)c(N)cc(C)c2C(F)(F)F)C3)[C@@H](C)C1` (single isomer, unassigned) [Example 37b] returned an IC50 against K-Ras G12C [1] of 2200 nM. In addition, a half-maximal effect on K-Ras G12C [2] (EC50) was put at 1000 nM.

For `C=C(F)C(=O)N1CCN(c2nc(OC[C@@H]3C[C@@H](F)CN3C)nc3c2C[C@H](C)[C@@H](c2c(F)c(N)cc(C)c2C(F)(F)F)C3)C[C@H]1CC#N` (single isomer, unassigned) [Example 38a], the half-maximal inhibitory concentration (IC50) on K-Ras G12C [1] came to 3600 nM. Moreover, the response on K-Ras G12C [2] was half-maximal at 1000 nM (EC50).

Consider `C=C(F)C(=O)N1CCN(c2nc(OC[C@@H]3C[C@@H](F)CN3C)nc3c2C[C@H](C)[C@@H](c2c(F)c(N)cc(C)c2C(F)(F)F)C3)C[C@@H]1CC#N` (single isomer, unassigned) [Example 38d], for which the IC50 against K-Ras G12C [1] turned out to be 1700 nM. This compound returned an EC50 on K-Ras G12C [2] of 1000 nM.

`C#CC[C@H]1CN(c2nc(OC[C@@H]3CCCN3C)nc3c2C[C@@H](C)[C@H](c2cccc4c2CCC4)C3)CCN1C(=O)C=C` (single isomer, unassigned) [Example 40a] came in with an IC50 against K-Ras G12C [1] of less than 10 nM. Besides, at K-Ras G12C [2], it took 100 nM to reach a half-maximal effect (EC50).

For `C#CC[C@H]1CN(c2nc(OC[C@@H]3CCCN3C)nc3c2C[C@H](C)[C@@H](c2cccc4c2CCC4)C3)CCN1C(=O)C=C` (single isomer, unassigned) [Example 40b], half-maximal inhibition against K-Ras G12C [1] (IC50) was put at 560 nM. Further, a half-maximal effect at K-Ras G12C [2] (EC50) was put at 1000 nM.

For `C#CC[C@@H]1CN(c2nc(OC[C@@H]3CCCN3C)nc3c2C[C@H](C)[C@@H](c2cccc4c2CCC4)C3)CCN1C(=O)C=C` (single isomer, unassigned) [Example 40c], the IC50 at K-Ras G12C [1] came to 1200 nM. For the same compound, the EC50 on K-Ras G12C [2] amounted to 1000 nM.

Take `C#CC[C@@H]1CN(c2nc(OC[C@@H]3CCCN3C)nc3c2C[C@@H](C)[C@H](c2cccc4c2CCC4)C3)CCN1C(=O)C=C` (single isomer, unassigned) [Example 40d]: the IC50 on K-Ras G12C [1] is 29 nM. For the same compound, at K-Ras G12C [2], the EC50 is 1000 nM.

In the case of `C=CC(=O)N1CCN(c2nc(OC[C@@H]3CCCN3C)nc3c2C[C@H](C)[C@@H](c2nc(N)ccc2C(F)(F)F)C3)[C@@H](C)C1` (single isomer, unassigned) [Example 41a], the IC50 on K-Ras G12C [1] is 500 nM. The compound further yielded an EC50 on K-Ras G12C [2] of 880 nM.

Take `C=CC(=O)N1CCN(c2ncnc3c2C[C@@H](C)[C@H](c2nc(N)ccc2C(F)(F)F)C3)CC1` (single isomer, unassigned) [Example 42b]: the midpoint of inhibition on K-Ras G12C [1], the IC50, lay at 67 nM. The compound also yielded an EC50 on K-Ras G12C [2] of 360 nM.

For the compound `C=CC(=O)N1CCN(c2ncnc3c2CC[C@@H](c2cncc4ccccc24)C3)CC1` (single isomer, unassigned) [Example 44a], the 50% inhibitory concentration (IC50) at K-Ras G12C [1] is more than 50000 nM. For the same compound, the EC50 on K-Ras G12C [2] was determined as 1000 nM.

In turn, `C=CC(=O)N1CCN(c2ncnc3c2CC[C@H](c2cncc4ccccc24)C3)CC1` (single isomer, unassigned) [Example 44b] yielded an IC50 against K-Ras G12C [1] of 8700 nM. On K-Ras G12C [2], the concentration giving a half-maximal response (EC50) stood at 1000 nM.

As to `C=CC(=O)N1CCN(c2ncnc3c2CC[C@H](c2nc(N)ccc2C(F)(F)F)C3)CC1` (single isomer, unassigned) [Example 46b], the IC50 at K-Ras G12C [1] is 230 nM. This compound also displayed an EC50 at K-Ras G12C [2] of 970 nM.

Compound `C=C(F)C(=O)N1CCN(c2nc(OC[C@@H]3CCCN3C)nc3c2CCC(c2cccc4ccccc24)C3)CC1CC#N` (single isomer, unassigned) [Example 47a] displayed an IC50 against K-Ras G12C [1] of 150 nM. The EC50 on K-Ras G12C [2] worked out at 530 nM.

The compound `C=C(F)C(=O)N1CCN(c2nc(OC[C@@H]3CCCN3C)nc3c2CCC(c2cccc4ccccc24)C3)CC1CC#N` (single isomer, unassigned) [Example 47c] had an IC50 against K-Ras G12C [1] of 130 nM. The compound also yielded an EC50 on K-Ras G12C [2] of 450 nM.

On to `C=C(F)C(=O)N1CCN(c2nc(OC[C@@H]3CCCN3C)nc3c2CCC(c2cccc4ccccc24)C3)C[C@@H]1CC#N` (single isomer, unassigned) [Example 47d], for which the IC50 at K-Ras G12C [1] was less than 10 nM. The compound further yielded a 50% effective concentration (EC50) at K-Ras G12C [2] of 30 nM.

Compound `C=CC(=O)N1CCN(c2nc(OC[C@@H]3COC(=O)N3C)nc3c2CC[C@H](c2cc(O)cc4ccccc24)C3)[C@@H](C)C1` (single isomer, unassigned) [Example 57c] showed an IC50 against K-Ras G12C [1] of 53 nM. Besides, at K-Ras G12C [2], the EC50 stood at 830 nM.

The record behind these values is US11760744B2, “Fused ring compounds” (Genentech, Inc., priority 2018, dated 2023).
